Results as given in patent US20250197375A1, “PYRIMIDINES AND METHODS OF THEIR USE” (Kineta, Inc., priority 2021, published 2025).

Columns and labels:
PIKfyve = PIKfyve (Homo sapiens (Human), UniProt Q9Y2I7); test: PIKfyve EEA1 Assay (endosomal vesicle enlargement, high content imaging in U2OS cells); assay type: cell-based; conditions: 3 hours of treatment, activity relative to maximal APY0201 activity
Experimental: PIKfyve EEA1 Assay. Genetic or pharmacological disruption of PIKfyve activity results in enlargement of endosomal vesicles. This enlargement was utilized as a surrogate readout of PIKFyve inhibition for routine triage of PIKfyve inhibitors. U2OS cells grown in 96-well assay plates were treated with compound diluted in DMEM media containing 10% fetal bovine serum. After 3 hours of treatment, cells were fixed with paraformaldehyde, permeabilized with 0.2% Triton-X in phosphate buffered saline and stained against EEA1. During the secondary antibody staining, cells were also stained with CellMask™ Deep Red and Hoechst to detect cytoplasms and nuclei respectively. Endosomal structures were visualized using a high content imager at 40× magnification. Images were analyzed using a linear classifier algorithm integrating EEA1 spot size, intensity and texture trained on images of cells treated with the potent reference compound APY0201. Compound activity was calculated by subtracting the DMSO signal and calculating percentage activity relative to maximal APY0201 activity. IC50 values were then calculated from concentration versus percent inhibition data by logistic regression.

[1] = molecular target: full-length human PIKFYVE (Homo sapiens (Human), UniProt Q9Y2I7, L932S/Q1183K/Q995L/S1033A/S696N/T998S); test: PIKfyve Biochemical Assay (ADP-Glo Kinase assay, GST-PIKFYVE); conditions: ADP-Glo, 1 hour at room temperature, 10 μM to 3 nM in duplicate; read-out: PIKfyve Biochemistry IC50 (μM)*
Experimental: PIKfyve Biochemical Assay. The biochemical PIKFyve inhibition assays were run by Cama Biosciences according to proprietary methodology based on the Promega ADP-Glo™ Kinase assay. […] GST-PIKFYVE was purified by using glutathione sepharose chromatography and used in an ADP-Glo™ Kinase assay (Promega). Reactions were set up by adding the test compound solution, substrate solution, ATP solution and kinase solution, each at 4× final concentrations. Reactions were prepared with assay buffer (50 mM MOPS, 1 mM DTT, pH7.2), mixed, and incubated in black 384 well polystyrene plates for 1 hour at room temperature. ADP-Glo™ reagent was then added for 40 minutes, followed by kinase detection reagent for an additional 40 minutes. The kinase activity was evaluated by detecting relative light units on a luminescence plate reader. Samples were run in duplicate from 10 μM to 3 nM. […] IC50 values were calculated from concentration versus percent inhibition curves by fitting to a four-parameter logistic curve.
The biochemical PIKFyve inhibition assays were run by Cama Biosciences according to proprietary methodology based on the Promega ADP-Glo™ Kinase assay. […] GST-PIKFYVE was purified by using glutathione sepharose chromatography and used in an ADP-Glo™ Kinase assay (Promega).
Reactions were set up by adding the test compound solution, substrate solution, ATP solution and kinase solution, each at 4× final concentrations. Reactions were prepared with assay buffer (50 mM MOPS, 1 mM DTT, pH7.2), mixed, and incubated in black 384 well polystyrene plates for 1 hour at room temperature. ADP-Glo™ reagent was then added for 40 minutes, followed by kinase detection reagent for an additional 40 minutes. The kinase activity was evaluated by detecting relative light units on a luminescence plate reader. Samples were run in duplicate from 10 uM to 3 nM. […] IC50 values were calculated from concentration vs % inhibition curves by fitting to a four-parameter logistic curve.

Sequence of PIKfyve (Q9Y2I7 whole entry): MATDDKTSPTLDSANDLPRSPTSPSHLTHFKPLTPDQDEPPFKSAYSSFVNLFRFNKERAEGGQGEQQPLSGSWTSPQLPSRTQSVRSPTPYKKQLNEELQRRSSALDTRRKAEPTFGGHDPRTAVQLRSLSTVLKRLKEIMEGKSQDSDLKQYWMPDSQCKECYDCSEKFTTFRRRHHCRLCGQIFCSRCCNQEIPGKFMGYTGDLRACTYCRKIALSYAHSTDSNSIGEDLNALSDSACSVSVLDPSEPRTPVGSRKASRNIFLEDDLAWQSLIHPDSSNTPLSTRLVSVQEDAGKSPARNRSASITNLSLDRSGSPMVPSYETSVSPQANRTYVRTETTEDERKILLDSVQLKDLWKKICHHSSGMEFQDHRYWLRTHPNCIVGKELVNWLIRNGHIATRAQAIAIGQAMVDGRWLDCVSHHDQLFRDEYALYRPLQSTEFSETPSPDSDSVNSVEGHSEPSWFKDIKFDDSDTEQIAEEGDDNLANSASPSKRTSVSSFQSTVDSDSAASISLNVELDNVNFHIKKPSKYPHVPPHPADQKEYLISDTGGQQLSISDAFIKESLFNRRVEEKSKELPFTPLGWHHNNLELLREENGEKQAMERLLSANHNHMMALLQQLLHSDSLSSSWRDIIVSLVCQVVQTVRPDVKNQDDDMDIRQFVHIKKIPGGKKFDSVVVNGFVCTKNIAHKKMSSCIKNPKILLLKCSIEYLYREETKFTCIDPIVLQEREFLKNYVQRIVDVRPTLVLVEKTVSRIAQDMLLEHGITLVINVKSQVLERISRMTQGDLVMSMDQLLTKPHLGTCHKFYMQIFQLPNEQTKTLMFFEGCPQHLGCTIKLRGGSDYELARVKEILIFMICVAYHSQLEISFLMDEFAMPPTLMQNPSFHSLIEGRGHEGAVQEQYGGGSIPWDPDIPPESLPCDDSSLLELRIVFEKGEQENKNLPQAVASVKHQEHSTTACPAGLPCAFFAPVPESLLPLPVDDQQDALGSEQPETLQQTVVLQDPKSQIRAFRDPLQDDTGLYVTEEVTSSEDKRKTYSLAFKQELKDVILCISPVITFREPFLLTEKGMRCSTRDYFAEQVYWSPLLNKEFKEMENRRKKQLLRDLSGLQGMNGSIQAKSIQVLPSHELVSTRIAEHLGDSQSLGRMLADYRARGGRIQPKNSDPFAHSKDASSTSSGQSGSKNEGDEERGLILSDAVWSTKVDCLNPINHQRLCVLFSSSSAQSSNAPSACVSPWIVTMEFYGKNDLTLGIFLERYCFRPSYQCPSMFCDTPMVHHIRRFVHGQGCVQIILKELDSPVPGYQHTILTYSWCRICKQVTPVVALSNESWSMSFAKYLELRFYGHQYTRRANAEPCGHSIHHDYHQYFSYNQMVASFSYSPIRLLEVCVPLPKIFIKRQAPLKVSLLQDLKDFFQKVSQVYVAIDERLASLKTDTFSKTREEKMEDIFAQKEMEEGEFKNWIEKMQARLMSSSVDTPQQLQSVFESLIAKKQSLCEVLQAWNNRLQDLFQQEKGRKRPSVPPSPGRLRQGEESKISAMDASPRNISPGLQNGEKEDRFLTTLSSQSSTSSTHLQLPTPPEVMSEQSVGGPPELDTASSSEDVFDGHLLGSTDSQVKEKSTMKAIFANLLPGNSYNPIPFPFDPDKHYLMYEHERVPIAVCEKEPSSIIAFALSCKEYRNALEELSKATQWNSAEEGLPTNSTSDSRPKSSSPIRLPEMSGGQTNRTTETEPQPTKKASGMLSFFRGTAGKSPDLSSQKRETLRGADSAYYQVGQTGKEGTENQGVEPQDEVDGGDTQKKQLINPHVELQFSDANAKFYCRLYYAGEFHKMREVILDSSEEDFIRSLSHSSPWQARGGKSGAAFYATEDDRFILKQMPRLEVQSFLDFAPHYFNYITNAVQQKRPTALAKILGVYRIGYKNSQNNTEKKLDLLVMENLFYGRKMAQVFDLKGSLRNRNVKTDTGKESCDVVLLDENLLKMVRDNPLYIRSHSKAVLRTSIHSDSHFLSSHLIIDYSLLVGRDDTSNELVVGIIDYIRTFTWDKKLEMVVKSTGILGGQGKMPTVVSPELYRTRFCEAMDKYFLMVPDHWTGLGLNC
Sequence of full-length human PIKFYVE (Q9Y2I7 whole entry S696N/L932S/Q995L/T998S/S1033A/Q1183K): as the sequence (Q9Y2I7 whole entry) above, with S696N, L932S, Q995L, T998S, S1033A, Q1183K counted along it

Row | Compound | IC50 (PIKfyve) | IC50 [1]
1 | COc1c(C(=O)Nc2ccccc2)nc(N2CCOCC2)nc1-c1ccn(-c2ccccc2)n1 [Compound 1, 5-methoxy-2-morpholino-N-phenyl-6-(1-phenyl-1H-pyrazol-3-yl)pyrimidine-4-carboxamide] | 1 to 10 µM | 0.01 to 0.1 µM
2 | COc1c(Oc2cccnc2)nc(N2CCOCC2)nc1-n1cc(-c2ccccc2)cn1 [Compound 2, 4-(5-methoxy-4-(4-phenyl-1H-pyrazol-1-yl)-6-(pyridin-3-yloxy)pyrimidin-2-yl) morpholine] | 1 to 10 µM | 0.01 to 0.1 µM
3 | COc1c(C(=O)NC2CC2)nc(N2CCOCC2)nc1-c1cccc(-c2ccn(C)n2)c1 [Compound 6, N-cyclopropyl-4-methoxy-6-(3-(1-methyl-H-pyrazol-3-yl)phenyl)-2-morpholino pyrimidine-4-carboxamide] | 1 to 10 µM | 0.01 to 0.1 µM
4 | COc1c(Nc2ccncc2)nc(N2CCOCC2)nc1-c1cncc(-c2ccn(C)n2)c1 [Compound 7, 5-methoxy-6-(5-(1-methyl-1H-pyrazol-3-yl)pyridin-3-yl)-2-morpholino-N-(pyridin-4-yl)pyrimidin-4-amine] | 0.01 to 0.1 µM | < 0.01 µM
5 | COc1c(Nc2ccncc2)nc(N2CCOCC2)nc1-c1cccc(-n2cccn2)c1 [Compound 8, 6-(3-(1H-pyrazol-1-yl)phenyl)-5-methoxy-2-morpholino-N-(pyridin-4-yl)pyrimidin-4-amine] | 0.1 to 1 µM | < 0.01 µM
6 | COc1c(Nc2ccncc2)nc(N2CCOCC2)nc1-c1cccc(-c2cccnn2)c1 [Compound 10, 5-methoxy-2-morpholino-6-(3-(pyridazin-3-yl)phenyl)-N-(pyridin-4-yl)pyrimidin-4-amine] | 0.1 to 1 µM | 0.01 to 0.1 µM
7 | COc1c(Nc2ccncc2)nc(N2CCOCC2)nc1-c1cccc(C(=O)N(C)C)c1 [Compound 11, 3-(5-methoxy-2-morpholino-6-(pyridin-4-ylamino)pyrimidin-4-yl)-N,N-dimethylbenzamide] | 1 to 10 µM | 0.01 to 0.1 µM
8 | COc1cc(-c2nc(N3CCOCC3)nc(Nc3ccncc3)c2OC)cnc1OC [Compound 12, 6-(5,6-dimethoxypyridin-3-yl)-5-methoxy-2-morpholino-N-(pyridin-4-yl)pyrimidin-4-amine] | 0.1 to 1 µM | < 0.01 µM
9 | COc1ccc(-c2nc(N3CCOCC3)nc(Nc3ccncc3)c2OC)cc1OC [Compound 13, 6-(3,4-dimethoxyphenyl)-5-methoxy-2-morpholino-N-(pyridin-4-yl)pyrimidin-4-amine] | 0.1 to 1 µM | < 0.01 µM
10 | COc1c(Nc2ccncc2)nc(N2CCOCC2)nc1-c1ccnc(-c2ccn(C)n2)c1 [Compound 14, 5-methoxy-6-(2-(1-methyl-H-pyrazol-3-yl)pyridin-4-yl)-2-morpholino-N-(pyridin-4-yl)pyrimidin-4-amine] | 0.01 to 0.1 µM | < 0.01 µM
11 | COc1c(Nc2ccncc2)nc(N2CCOCC2)nc1-c1cccc(N2CCN(C)C(=O)C2)c1 [Compound 15, 4-(3-(5-methoxy-2-morpholino-6-(pyridin-4-ylamino)pyrimidin-4-yl)phenyl)-1-methylpiperazin-2-one] | 0.1 to 1 µM | 0.01 to 0.1 µM
12 | COc1c(Nc2ccncc2)nc(N2CCOCC2)nc1-c1cccc(-c2ncccn2)c1 [Compound 16, 5-methoxy-2-morpholino-N-(pyridin-4-yl)-6-(3-(pyrimidin-2-yl)phenyl)pyrimidin-4-amine] | 0.01 to 0.1 µM | < 0.01 µM
13 | COc1c(Nc2ccc(C)cc2)nc(N2CCOCC2)nc1-c1cc(-c2ccn(C)n2)cnn1 [Compound 17, 5-methoxy-6-(5-(1-methyl-1H-pyrazol-3-yl)pyridazin-3-yl)-2-morpholino-N-(p-tolyl)pyrimidin-4-amine] | 0.01 to 0.1 µM | < 0.01 µM
14 | COc1c(Nc2cccnc2)nc(N2CCOCC2)nc1-c1cncc(-c2ccn(C)n2)c1 [Compound 19, 5-methoxy-6-(5-(1-methyl-1H-pyrazol-3-yl)pyridin-3-yl)-2-morpholino-N-(pyridin-3-yl)pyrimidin-4-amine] | 0.1 to 1 µM | 0.01 to 0.1 µM
15 | COc1c(-c2ccncc2)nc(N2CCOCC2)nc1-c1cccc(-c2ccn(C)n2)c1 [Compound 30, 4-(5-methoxy-4-(3-(1-methyl-1H-pyrazol-3-yl)phenyl)-6-(pyridin-4-yl)pyrimidin-2-yl)morpholine] | 1 to 10 µM | 0.01 to 0.1 µM
16 | COc1c(-c2cccc(-c3ccn(C)n3)c2)nc(N2CCOCC2)nc1C(O)c1ccncc1 (stereo not drawn) [Compound 32] | 1 to 10 µM | 0.1 to 1 µM
17 | CN(C)C(=O)c1c(Nc2ccncc2)nc(N2CCOCC2)nc1-c1cccc(-n2cccn2)c1 [Compound 33] | 0.1 to 1 µM | 0.01 to 0.1 µM
18 | Cn1ccc(-c2cc3c(cn2)COc2c(Nc4ccncc4)nc(N4CCOCC4)nc2-3)n1 [Compound 38, 9-(1-methyl-1H-pyrazol-3-yl)-2-morpholino-N-(pyridin-4-yl)-6H-pyrido[4′,3′:4,5]pyrano[3,2-d]pyrimidin-4-amine] | 0.1 to 1 µM | 0.01 to 0.1 µM
19 | COc1c(Nc2ccncc2)nc(-c2ccncc2)nc1-c1ccnc(-c2ccn(C)n2)c1 [Compound 39, 5-methoxy-6-(2-(1-methyl-1H-pyrazol-3-yl)pyridin-4-yl)-N, 2-di(pyridin-4-yl)pyrimidin-4-amine] | 0.01 to 0.1 µM | < 0.01 µM
20 | Cn1ccc(-c2cnc3c(c2)-c2nc(N4CCOCC4)nc(Nc4ccncc4)c2OC3)n1 [Compound 40, 9-(1-methyl-1H-pyrazol-3-yl)-2-morpholino-N-(pyridin-4-yl)-6H-pyrido[3′,2′:4,5] pyrano[3,2-d]pyrimidin-4-amine] | 0.01 to 0.1 µM | 0.01 to 0.1 µM
21 | COc1c(Nc2ccncc2)nc(N2CCOCC2)nc1-c1cccc(-c2nn(C)cc2C)c1 [Compound 41] | 0.1 to 1 µM | 0.01 to 0.1 µM
22 | COc1c(Nc2ccncc2)nc(N2CCCC2=O)nc1-c1cccc(-c2ccn(C)n2)c1 [Compound 44, 1-(5-methoxy-4-(3-(1-methyl-1H-pyrazol-3-yl)phenyl)-6-(pyridin-4-ylamino)pyrimidin-2-yl)pyrrolidin-2-one] | > 10 µM | 1 to 10 µM
23 | COc1c(Nc2ccncc2)nc(N2CCC(O)CC2)nc1-c1cccc(-c2ccn(C)n2)c1 [Compound 46, 1-(5-methoxy-4-(3-(1-methyl-1H-pyrazol-3-yl)phenyl)-6-(pyridin-4-ylamino)pyrimidin-2-yl)piperidin-4-ol] | > 10 µM | 0.1 to 1 µM
24 | COc1cn(C)nc1-c1cccc(-c2nc(N3CCOCC3)nc(Nc3ccncc3)c2OC)c1 [Compound 47, 5-methoxy-6-(3-(4-methoxy-1-methyl-1H-pyrazol-3-yl)phenyl)-2-morpholino-N-(pyridin-4-yl)pyrimidin-4-amine] | 0.1 to 1 µM | 0.01 to 0.1 µM
25 | Cn1ccc(-c2ccc3c(c2)-c2nc(N4CCOCC4)nc(Nc4ccncc4)c2OC3)n1 [Compound 49, 9-(1-methyl-1H-pyrazol-3-yl)-2-morpholino-N-(pyridin-4-yl)-6H-isochromeno[4,3-d]pyrimidin-4-amine] | 0.1 to 1 µM | 0.01 to 0.1 µM
26 | COc1c(Nc2ccncc2)nc(N2CCOCC2)nc1-c1cncc(-c2cccnn2)c1 [Compound 57] | 0.1 to 1 µM | < 0.01 µM
27 | COc1c(NCc2cccnc2)nc(-c2ccncc2)nc1-c1cccc(-c2ccn(C)n2)c1 [Compound 62, 5-methoxy-6-(3-(1-methyl-1H-pyrazol-3-yl)phenyl)-N-(pyridin-3-ylmethyl)-2-(pyridin-4-yl)pyrimidin-4-amine] | 0.1 to 1 µM | < 0.01 µM
28 | Cn1ccc(-c2ccc3c(c2)c2nc(N4CCOCC4)nc(Nc4ccncc4)c2c(=O)n3C)n1 [Compound 71, 6-methyl-9-(1-methylpyrazol-3-yl)-2-morpholino-4-(4-pyridylamino)pyrimido[5,4-c]quinolin-one] | 0.1 to 1 µM | –
29 | Cn1ccc(-c2ccc3[nH]c(=O)c4c(Nc5ccncc5)nc(N5CCOCC5)nc4c3c2)n1 [Compound 72, 9-(1-methylpyrazol-3-yl)-2-morpholino-4-(4-pyridylamino)-6H-pyrimido[5,4-c]quinolin-one] | 0.01 to 0.1 µM | –
30 | Cn1ccc(-c2cccc(-c3nc(N4CCOCC4)nc(Nc4cc[n+](C)cc4)c3-c3ncco3)c2)n1 [Compound 73] | 1 to 10 µM | –
